From patent US11492335B2, “Aryl or heteroaryl triazolone derivatives or salts thereof, or pharmaceutical compositions comprising the same” (YUHAN CORPORATION, priority 2018, dated 2022)
Where a name gives a salt, the structure may show the parent alone.

Tests used:
Assay type in all cases: biochemical
recombinant human VAP-1 = biological target: T1, recombinant human VAP-1 (Homo sapiens, UniProt Q16853); assay: Activity on recombinant human VAP-1, Amplex Red HRP-coupled hydrogen peroxide assay, benzylamine substrate; details: recombinant human VAP-1, benzylamine substrate, 30 min preincubation at 37° C.; read-out: Inhibitory Activity (IC50, nM) human VAP-1
T1 construct: purchased R&D systems
T1 sequence (Q16853 1-763): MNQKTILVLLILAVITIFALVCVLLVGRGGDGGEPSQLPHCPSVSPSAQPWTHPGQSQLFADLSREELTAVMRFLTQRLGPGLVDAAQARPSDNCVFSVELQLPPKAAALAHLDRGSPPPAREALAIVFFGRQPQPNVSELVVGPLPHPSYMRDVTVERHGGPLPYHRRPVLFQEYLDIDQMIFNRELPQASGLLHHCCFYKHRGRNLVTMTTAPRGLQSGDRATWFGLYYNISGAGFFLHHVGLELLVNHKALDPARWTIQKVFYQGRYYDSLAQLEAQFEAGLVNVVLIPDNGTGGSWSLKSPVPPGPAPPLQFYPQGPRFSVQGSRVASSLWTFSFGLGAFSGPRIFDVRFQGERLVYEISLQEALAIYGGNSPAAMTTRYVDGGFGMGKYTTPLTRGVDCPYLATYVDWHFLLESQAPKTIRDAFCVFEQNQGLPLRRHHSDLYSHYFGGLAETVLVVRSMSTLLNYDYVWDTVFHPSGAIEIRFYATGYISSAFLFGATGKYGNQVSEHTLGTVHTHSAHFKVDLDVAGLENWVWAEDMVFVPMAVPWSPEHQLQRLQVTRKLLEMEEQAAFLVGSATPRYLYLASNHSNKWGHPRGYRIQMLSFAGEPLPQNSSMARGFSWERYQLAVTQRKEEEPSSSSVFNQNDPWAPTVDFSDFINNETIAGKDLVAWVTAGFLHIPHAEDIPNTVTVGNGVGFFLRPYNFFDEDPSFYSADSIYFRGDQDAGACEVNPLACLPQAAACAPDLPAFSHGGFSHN
Procedure: (§1) The compounds according to the present technology were evaluated in terms of activity on recombinant human VAP-1 (R&D systems) by measuring the level of hydrogen peroxide in horseradish peroxidase (HRP)-coupled reaction using Amplex Red Hydrogen Peroxide Assay Kit (Molecular Probes, Invitrogen, USA). The experiment was carried out at room temperature using benzylamine as a substrate. In the HRP-coupled reaction, hydrogen peroxide oxidation of 10-acetyl-3,7-dihydroxyphenoxazine (Amplex Red reagent) produces resorufin, which is a highly fluorescent compound. Briefly, the test compound was dissolved in dimethyl sulfoxide (DMSO) at a concentration of 20 mM. The dose-response assessment was made by 1:3 serial dilution in DMSO, thereby creating an 8 point curve. The concentration of the upper part was controlled according to the efficacy of the compounds, followed by dilution with a reaction buffer solution to obtain a final DMSO concentration less than 1%. To each well of a 96 black well plate, human VAP-1 purified in 50 mM sodium phosphate buffer solution (pH7.4) was added. The test compounds dissolved in DMSO were incubated with the human VAP-1 enzymes at 37° C. for 30 minutes. After 30-minute incubation, each well is added with a reaction mixture containing 200 uM Amplex Red reagent prepared from 50 mM sodium phosphate buffer solution (pH 7.4), 1 mM benzylamine, and 1 U/mL HRP. Fluorescence intensity was measured at several time points during 1-2 hours using a microplate reader (Flexstation3, Molecular Devices) under the wavelength condition exciting at 544 nm and reading the emission at 590 nm. The inhibitory effect of the compounds was measured as a decrease (%) in the signal rate as compared to the control group without any inhibitor (only diluted DMSO). Data was fixed to a logistic model with four variables and IC50 value was calculated using GraphPad Prism program.

[1] = biological target: T2, recombinant human MAO-A (monoamine oxidase-A) (Homo sapiens, UniProt P21397); assay: Activity on recombinant human MAO-A, Amplex Red method, 0.5 mM tyramine substrate; details: 0.5 mM tyramine, read-out: Inhibitory Activity (IC50, nM) MAO-A
T2 construct: purchased Sigma-Aldrich
T2 sequence (P21397 1-527): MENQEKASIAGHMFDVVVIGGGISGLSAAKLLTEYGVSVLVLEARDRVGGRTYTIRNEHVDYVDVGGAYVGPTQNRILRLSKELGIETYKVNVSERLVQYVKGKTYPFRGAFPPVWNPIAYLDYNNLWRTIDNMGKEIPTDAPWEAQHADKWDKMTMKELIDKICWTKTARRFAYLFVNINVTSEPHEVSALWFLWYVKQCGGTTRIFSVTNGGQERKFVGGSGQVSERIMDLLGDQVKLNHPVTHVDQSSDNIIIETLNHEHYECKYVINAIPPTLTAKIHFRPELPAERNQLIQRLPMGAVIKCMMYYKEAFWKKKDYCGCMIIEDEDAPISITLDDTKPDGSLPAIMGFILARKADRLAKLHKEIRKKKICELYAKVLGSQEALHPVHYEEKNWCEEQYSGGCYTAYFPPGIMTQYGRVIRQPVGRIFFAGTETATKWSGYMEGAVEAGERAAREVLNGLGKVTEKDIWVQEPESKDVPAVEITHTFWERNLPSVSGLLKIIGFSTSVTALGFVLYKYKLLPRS
Procedure: as §1
(§2) In addition, the compounds according to the present technology were evaluated in terms of activity on a recombinant human MAO-A (monoamine oxidase-A, Sigma-Aldrich) and a recombinant human MAO-B (monoamine oxidase-B, Sigma-Aldrich) by using as substrates, 0.5 mM tyramine and 1 mM benzylamine, respectively, with a method similar to the activity evaluation method for recombinant human VAP-1. The compounds according to the present technology were also evaluated in terms of activity on a recombinant human DAO (diamine oxidase, R&D systems) by using as a substrate 1 mM putrescine with a method similar to the activity evaluation method for recombinant human VAP-1.

[2] = biological target: T3, recombinant human MAO-B (monoamine oxidase-B) (Homo sapiens, UniProt P27338); assay: Activity on recombinant human MAO-B, Amplex Red method, 1 mM benzylamine substrate; details: 1 mM benzylamine, read-out: Inhibitory Activity (IC50, nM) MAO-B
T3 construct: purchased Sigma-Aldrich
T3 sequence (P27338 1-520): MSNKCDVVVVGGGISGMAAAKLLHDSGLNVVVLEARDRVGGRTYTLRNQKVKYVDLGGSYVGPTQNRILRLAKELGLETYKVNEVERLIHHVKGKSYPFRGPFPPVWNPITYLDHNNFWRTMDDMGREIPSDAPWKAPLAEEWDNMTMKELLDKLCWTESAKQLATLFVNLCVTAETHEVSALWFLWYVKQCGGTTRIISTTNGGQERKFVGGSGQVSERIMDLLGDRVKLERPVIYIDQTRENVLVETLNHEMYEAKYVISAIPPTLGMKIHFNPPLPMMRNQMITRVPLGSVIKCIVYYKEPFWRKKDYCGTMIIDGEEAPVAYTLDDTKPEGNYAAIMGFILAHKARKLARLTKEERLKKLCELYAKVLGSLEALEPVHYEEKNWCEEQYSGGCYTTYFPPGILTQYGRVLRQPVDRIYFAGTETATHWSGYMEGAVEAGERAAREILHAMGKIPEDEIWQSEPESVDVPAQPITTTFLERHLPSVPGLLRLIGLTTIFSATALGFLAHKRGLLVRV
Procedure: as §1, §2

[3] = biological target: T4, recombinant human DAO (diamine oxidase) (Homo sapiens, UniProt P19801); assay: Activity on recombinant human DAO, Amplex Red method, 1 mM putrescine substrate; details: recombinant human DAO, 1 mM putrescine; * = between 10 and 100 nM, ** = between 300 and 1000 nM; read-out: Inhibitory Activity (IC50, nM) DAO
T4 construct: purchased R&D systems
T4 sequence (P19801 20-751): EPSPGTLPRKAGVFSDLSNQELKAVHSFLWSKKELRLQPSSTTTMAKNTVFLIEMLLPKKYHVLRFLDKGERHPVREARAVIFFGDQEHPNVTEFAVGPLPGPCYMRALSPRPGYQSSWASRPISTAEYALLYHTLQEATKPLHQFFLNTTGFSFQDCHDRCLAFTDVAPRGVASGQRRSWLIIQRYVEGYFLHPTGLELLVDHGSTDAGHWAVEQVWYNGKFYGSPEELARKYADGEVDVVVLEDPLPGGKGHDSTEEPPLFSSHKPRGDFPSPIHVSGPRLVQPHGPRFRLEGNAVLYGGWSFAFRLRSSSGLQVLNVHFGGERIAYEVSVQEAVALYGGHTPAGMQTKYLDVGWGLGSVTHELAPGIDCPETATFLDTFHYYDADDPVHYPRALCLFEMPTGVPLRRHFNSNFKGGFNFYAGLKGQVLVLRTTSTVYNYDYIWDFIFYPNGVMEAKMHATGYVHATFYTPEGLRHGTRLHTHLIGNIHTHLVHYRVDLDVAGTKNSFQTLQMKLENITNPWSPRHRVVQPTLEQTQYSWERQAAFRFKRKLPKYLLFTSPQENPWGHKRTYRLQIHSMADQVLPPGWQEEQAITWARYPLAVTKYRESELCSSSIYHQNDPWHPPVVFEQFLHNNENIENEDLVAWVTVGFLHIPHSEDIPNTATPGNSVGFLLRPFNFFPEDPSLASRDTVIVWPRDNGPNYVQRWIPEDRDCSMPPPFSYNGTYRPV
Procedure: as §1, §2

Row | Structure (SMILES) | IC50 (recombinant human VAP-1) [nM] | IC50 [1] [nM] | IC50 [2] [nM] | IC50 [3] [nM]
1 | NC/C(=C\F)Cn1ncn(-c2ccc(Br)cc2)c1=O [Example 2, 2-[(2E)-2-(aminomethyl)-3-fluoroprop-2-en-1-yl]-4-(4-bromophenyl)-2,4-dihydro-3H-1,2,4-triazol-3-one] | 0.9 | 2900 | 86 | 120
2 | NC/C(=C/F)Cn1ncn(-c2cccc(Br)c2)c1=O [Example 3, 2-[(2Z)-2-(aminomethyl)-3-fluoroprop-2-en-1-yl]-4-(3-bromophenyl)-2,4-dihydro-3H-1,2,4-triazol-3-one hydrochloride] | 2.5 | 3500 | 121 | 542
3 | NC/C(=C\F)Cn1ncn(-c2cccc(Br)c2)c1=O [Example 4, 2-[(2E)-2-(aminomethyl)-3-fluoroprop-2-en-1-yl]-4-(3-bromophenyl)-2,4-dihydro-3H-1,2,4-triazol-3-one hydrochloride] | 1.2 | > 100000 | 175 | 90
4 | NC/C(=C/F)Cn1ncn(-c2ccc(F)cc2)c1=O [Example 5, 2-[(2Z)-2-(aminomethyl)-3-fluoroprop-2-en-1-yl]-4-(4-fluorophenyl)-2,4-dihydro-3H-1,2,4-triazol-3-one] | 3.8 | 1600 | 260 | 1100
5 | NC/C(=C\F)Cn1ncn(-c2ccc(F)cc2)c1=O [Example 6, 2-[(2E)-2-(aminomethyl)-3-fluoroprop-2-en-1-yl]-4-(4-fluorophenyl)-2,4-dihydro-3H-1,2,4-triazol-3-one hydrochloride] | 3.7 | > 100000 | > 10000 | 1100
6 | NC/C(=C/F)Cn1ncn(-c2ccc(OCc3ccccc3)cc2)c1=O [Example 7, 2-[(2Z)-2-(aminomethyl)-3-fluoroprop-2-en-1-yl]-4-[4-(benzyloxy)phenyl]-2,4-dihydro-3H-1,2,4-triazol-3-one] | 0.88 | 2100 | 8 | 47
7 | NC/C(=C\F)Cn1ncn(-c2ccc(OCc3ccccc3)cc2)c1=O [Example 8, 2-[(2E)-2-(aminomethyl)-3-fluoroprop-2-en-1-yl]-4-[4-(benzyloxy)phenyl]-2,4-dihydro-3H-1,2,4-triazol-3-one hydrochloride] | 0.6 | 54000 | 10 | 38
8 | NC/C(=C/F)Cn1ncn(-c2ccc(F)c(F)c2)c1=O [Example 9, 2-[(2Z)-2-(aminomethyl)-3-fluoroprop-2-en-1-yl]-4-(3,4-difluorophenyl)-2,4-dihydro-3H-1,2,4-triazol-3-one] | 5.4 | 2100 | 85 | 290
9 | NC/C(=C\F)Cn1ncn(-c2ccc(F)c(F)c2)c1=O [Example 10, 2-[(2E)-2-(aminomethyl)-3-fluoroprop-2-en-1-yl]-4-(3,4-difluorophenyl)-2,4-dihydro-3H-1,2,4-triazol-3-one hydrochloride] | 2.4 | > 100000 | 1610 | 100
10 | NC/C(=C/F)Cn1ncn(-c2ccc(Br)cc2F)c1=O [Example 11, 2-[(2Z)-2-(aminomethyl)-3-fluoroprop-2-en-1-yl]-4-(4-bromo-2-fluorophenyl)-2,4-dihydro-3H-1,2,4-triazol-3-one hydrochloride] | 1.5 | 200 | 12 | 209
11 | NC/C(=C\F)Cn1ncn(-c2ccc(Br)cc2F)c1=O [Example 12, 2-[(2E)-2-(aminomethyl)-3-fluoroprop-2-en-1-yl]-4-(4-bromo-2-fluorophenyl)-2,4-dihydro-3H-1,2,4-triazol-3-one hydrochloride] | 0.75 | 1500 | 281 | 38
12 | NC/C(=C/F)Cn1ncn(-c2ccc(Br)c(F)c2)c1=O [Example 13, 2-[(2Z)-2-(aminomethyl)-3-fluoroprop-2-en-1-yl]-4-(4-bromo-3-fluorophenyl)-2,4-dihydro-3H-1,2,4-triazol-3-one] | 2.3 | 155 | 3.3 | 67
